{"source": "patent US20210038579A1", "about": "“Treatment Of Patients With Classic Fabry Disease” (Amicus Therapeutics, Inc., priority 2018, published 2021)", "assay_in_all_cases": "HEK assay: α-Gal A activity in HEK-293 cell lysate with migalastat", "format_in_all_cases": "cell-based", "key": {"[1]": {"target": "T1, α-Gal A mutant form p.Asp244Asn (c.730 G > A) (Homo sapiens, UniProt P06280, D244N)", "T1 construct": "expressed in transfected cells; host or cells: HEK-293", "T1 sequence (P06280 32-429 D244N)": "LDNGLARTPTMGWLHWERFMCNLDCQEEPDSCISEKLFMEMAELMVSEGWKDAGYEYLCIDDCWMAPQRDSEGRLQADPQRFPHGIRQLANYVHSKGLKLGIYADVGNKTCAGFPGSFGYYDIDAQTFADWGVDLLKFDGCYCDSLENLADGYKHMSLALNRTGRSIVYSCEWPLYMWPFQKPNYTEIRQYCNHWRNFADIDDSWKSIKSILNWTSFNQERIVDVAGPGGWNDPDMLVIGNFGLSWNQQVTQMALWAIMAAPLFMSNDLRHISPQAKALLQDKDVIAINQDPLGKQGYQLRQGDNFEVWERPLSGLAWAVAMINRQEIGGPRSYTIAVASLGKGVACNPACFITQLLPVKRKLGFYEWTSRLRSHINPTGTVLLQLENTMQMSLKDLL", "procedure": "(§1) Such mutations are also referred to herein as “HEK assay amenable” mutations.\n(§2) In this assay, cDNA constructs are created. The corresponding α-Gal A mutant forms are transiently expressed in HEK-293 cells. Cells are then incubated±migalastat (17 nM to 1 mM) for 4 to 5 days. After, α-Gal A levels are measured in cell lysates using a synthetic fluorogenic substrate (4-MU-α-Gal) or by western blot. This has been done for known disease-causing missense or small in-frame insertion/deletion mutations."}, "[2]": {"target": "T2, α-Gal A mutant form p.Cys174Arg (c.520 T > C) (Homo sapiens, UniProt P06280, C174R)", "T2 construct": "expressed in transfected cells; host or cells: HEK-293", "T2 sequence (P06280 32-429 C174R)": "T1 sequence (P06280 32-429 D244N) with C143R, N213D", "procedure": "as §1, §2"}, "[3]": {"target": "T3, α-Gal A mutant form p.Gly144Val (c.431 G > T) (Homo sapiens, UniProt P06280, G144V)", "T3 construct": "expressed in transfected cells; host or cells: HEK-293", "T3 sequence (P06280 32-429 G144V)": "T1 sequence (P06280 32-429 D244N) with G113V, N213D", "procedure": "as §1, §2"}, "[4]": {"target": "T4, α-Gal A mutant form p.Ile317Thr (c.950 T > C) (Homo sapiens, UniProt P06280, I317T)", "T4 construct": "expressed in transfected cells; host or cells: HEK-293", "T4 sequence (P06280 32-429 I317T)": "T1 sequence (P06280 32-429 D244N) with N213D, I286T", "procedure": "as §1, §2"}, "[5]": {"target": "T5, α-Gal A mutant form p.Leu300Pro (c.899 T > C) (Homo sapiens, UniProt P06280, L300P)", "T5 construct": "expressed in transfected cells; host or cells: HEK-293", "T5 sequence (P06280 32-429 L300P)": "T1 sequence (P06280 32-429 D244N) with N213D, L269P", "procedure": "as §1, §2"}, "[6]": {"details": "+10 μM migalastat, HEK-293 cell lysate, mean ± SEM, n = 20"}, "[7]": {"details": "HEK293, 10 μM migalastat minus baseline, read-out: Absolute increase at 10 μM (% WT)"}}, "note": "Numbering of substitutions follows the chain as printed.", "data": [{"smiles": "OC[C@H]1NC[C@H](O)[C@@H](O)[C@H]1O", "note": "[migalastat]", "values": [{"measurement": "α-Gal A activity at 10 μM (fold over baseline)", "setting": "[1]; 10 μM migalastat", "result": 1.58, "unit": "fold over baseline"}, {"measurement": "+Migalastat α-Gal A activity", "setting": "[1]; [6]", "result": "16321 ± 402", "unit": "nmol/mg/h"}, {"measurement": "+Migalastat α-Gal A activity % WT", "setting": "[1]; [6]", "result": "48.7 ± 1.7", "unit": "% WT"}, {"measurement": "activation at 10 µM", "setting": "[1]; [7]", "result": 17.8, "unit": "%"}, {"measurement": "α-Gal A activity at 10 μM (fold over baseline)", "setting": "[2]; 10 μM migalastat", "result": 3.53, "unit": "fold over baseline"}, {"measurement": "+Migalastat α-Gal A activity", "setting": "[2]; [6]", "result": "16505 ± 393", "unit": "nmol/mg/h"}, {"measurement": "+Migalastat α-Gal A activity % WT", "setting": "[2]; [6]", "result": "51.6 ± 2.0", "unit": "% WT"}, {"measurement": "activation at 10 µM", "setting": "[2]; [7]", "result": 37.4, "unit": "%"}, {"measurement": "α-Gal A activity at 10 μM (fold over baseline)", "setting": "[3]; 10 μM migalastat", "result": 11.58, "unit": "fold over baseline"}, {"measurement": "+Migalastat α-Gal A activity", "setting": "[3]; [6]", "result": "2924 ± 335", "unit": "nmol/mg/h"}, {"measurement": "+Migalastat α-Gal A activity % WT", "setting": "[3]; [6]", "result": "9.2 ± 1.2", "unit": "% WT"}, {"measurement": "activation at 10 µM", "setting": "[3]; [7]", "result": 8.4, "unit": "%"}, {"measurement": "α-Gal A activity at 10 μM (fold over baseline)", "setting": "[4]; 10 μM migalastat", "result": 3.40, "unit": "fold over baseline"}, {"measurement": "+Migalastat α-Gal A activity", "setting": "[4]; [6]", "result": "7812 ± 530", "unit": "nmol/mg/h"}, {"measurement": "+Migalastat α-Gal A activity % WT", "setting": "[4]; [6]", "result": "23.6 ± 1.0", "unit": "% WT"}, {"measurement": "activation at 10 µM", "setting": "[4]; [7]", "result": 17, "unit": "%"}, {"measurement": "α-Gal A activity at 10 μM (fold over baseline)", "setting": "[5]; 10 μM migalastat", "result": 10.35, "unit": "fold over baseline"}, {"measurement": "+Migalastat α-Gal A activity", "setting": "[5]; [6]", "result": "13219 ± 412", "unit": "nmol/mg/h"}, {"measurement": "+Migalastat α-Gal A activity % WT", "setting": "[5]; [6]", "result": "37.9 ± 1.2", "unit": "% WT"}, {"measurement": "activation at 10 µM", "setting": "[5]; [7]", "result": 34.2, "unit": "%"}]}]}
